Measured values taken from patent publication US10039742B2, “Sn-2-monoacylglycerols and lipid malabsorption” (Nestec S.A., priority 2010, dated 2018).

Experiment: Lipid maldigestion/malabsorption animal model obtained with Orlistat: EPA incorporation in red blood cells, plasma lipids and tissues
Type: in vivo, rats
Settings: comparison between the groups receiving fish oil with or without Orlistat; day 7
Description: Treatments: Control rats fed fish oil with or without Orlistat and rats fed NAG derivatives described in FIGS. 1A and 1B. Values are means±SEM (n=6).
The inventors tested their concept in a lipid malabsorption animal model. The lipid maldigestion/malabsorption conditions were obtained using Orlistat®, a well known pancreatic and gastric lipases inhibitor. Animals were fed with long-chain polyunsaturated fatty acid (LC-PUFA) supplements containing mainly eicosapentaenoic (EPA) acid. Fish oil was used as a source of triacylglycerols and different EPA glycerides, for example those of FIGS. 1A and 1B, were evaluated. At different time intervals the fatty acid profile of red blood cells and plasma lipids was assessed. At the end of the experiment, fatty acid profiles of different tissues were determined. […]
The concept was tested in a lipid maldigestion or malabsorption animal model. […] Fish oil was used as a source of triacylglycerols and the different EPA glycerides provided in FIGS. 1A and 1B were evaluated. […] At the end of the experiment, fatty acid profiles of different tissues were determined.
The main objective was to follow the level of EPA in red blood cell and plasma lipids. The main comparison evaluated was the difference in EPA level between groups receiving EPA derivatives (FIGS. 1A and 1B) in combination with Orlistat and the […] control group (fish oil+Orlistat).

CCCCCCCCCCC[C@@H](C[C@@H]1OC(=O)[C@H]1CCCCCC)OC(=O)[C@H](CC(C)C)NC=O [Orlistat]
EPA incorporation in red blood cells: decrease EPA incorporation in red blood cells
